Values quoted from earlier work in US12557816B2, “Compositions for controlling a plant disease” (NutriAg Ltd., priority 2017, dated 2026).

Details: phosphorous acid: second dissociation; hydrogen phosphite ion: conjugate base

Compound | pKa
OP(O)O [Phosphorous acid, phosphorous acid] | about 1.3
hydrogen phosphite [hydrogen phosphite (or phosphonate) ion] | about 6.7
